Measurements published in BindingDB's records for PubMed 21481795 (Tufts Medical Center).

Assays:
[1] = target: Serine/threonine-protein kinase OSR1 (OXSR1) (Homo sapiens) (UniProt O95747); assay: Inhibition of human OSR1 preincubated for 2 hrs followed by ATP addition and measured every 2 mins for […] by spectrophotometric analysis
[2] = target: Tyrosine-protein kinase Tec (Homo sapiens) (UniProt P42680); assay: Inhibition of human wild type TEC using PolyEY as substrate preincubated for 2 hrs followed by ATP addition and measured every 2 mins for […] by spectrophotometric analysis
[3] = target: 3-phosphoinositide-dependent protein kinase 1 (PDPK1) (Homo sapiens) (UniProt O15530); assay: Inhibition of human wild type PDK1 using bio-4xCHKT as substrate preincubated for 2 hrs followed by ATP addition and measured every 2 mins for […] by spectrophotometric analysis

Measured: IC50

Chain of Tyrosine-protein kinase Tec (Homo sapiens) (P42680 whole entry, looked up): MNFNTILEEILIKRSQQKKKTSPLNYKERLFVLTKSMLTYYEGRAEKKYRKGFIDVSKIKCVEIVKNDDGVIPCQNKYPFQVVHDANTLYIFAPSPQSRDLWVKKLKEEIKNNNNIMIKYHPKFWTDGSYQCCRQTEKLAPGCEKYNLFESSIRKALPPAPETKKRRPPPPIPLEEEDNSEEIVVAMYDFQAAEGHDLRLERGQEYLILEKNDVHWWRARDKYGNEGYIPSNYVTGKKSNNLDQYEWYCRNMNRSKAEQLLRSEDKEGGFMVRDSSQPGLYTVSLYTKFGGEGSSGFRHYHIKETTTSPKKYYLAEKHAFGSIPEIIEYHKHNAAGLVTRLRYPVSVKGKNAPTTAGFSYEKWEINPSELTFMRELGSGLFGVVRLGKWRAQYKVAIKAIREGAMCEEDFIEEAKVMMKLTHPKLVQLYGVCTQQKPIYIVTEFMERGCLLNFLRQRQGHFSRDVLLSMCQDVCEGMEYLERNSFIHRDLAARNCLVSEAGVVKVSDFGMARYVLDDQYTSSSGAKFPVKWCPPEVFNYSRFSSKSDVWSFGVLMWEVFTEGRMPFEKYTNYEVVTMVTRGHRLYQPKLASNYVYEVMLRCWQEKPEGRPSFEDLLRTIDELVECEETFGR
Chain of Serine/threonine-protein kinase OSR1 (OXSR1) (Homo sapiens) (O95747 whole entry, looked up): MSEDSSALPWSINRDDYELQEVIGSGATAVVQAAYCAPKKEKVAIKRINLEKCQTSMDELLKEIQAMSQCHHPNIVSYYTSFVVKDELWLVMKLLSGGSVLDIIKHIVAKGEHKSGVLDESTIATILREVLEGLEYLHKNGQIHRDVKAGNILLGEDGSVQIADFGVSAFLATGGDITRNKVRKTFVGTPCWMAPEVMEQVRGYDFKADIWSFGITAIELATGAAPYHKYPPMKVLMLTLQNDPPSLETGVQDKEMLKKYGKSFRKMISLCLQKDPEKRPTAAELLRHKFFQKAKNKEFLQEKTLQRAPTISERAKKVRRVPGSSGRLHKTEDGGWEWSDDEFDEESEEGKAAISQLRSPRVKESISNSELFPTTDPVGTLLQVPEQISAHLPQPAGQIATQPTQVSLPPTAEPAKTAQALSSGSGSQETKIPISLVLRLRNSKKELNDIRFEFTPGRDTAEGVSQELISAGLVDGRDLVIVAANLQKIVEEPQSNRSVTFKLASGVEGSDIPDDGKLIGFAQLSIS

CNC(=O)c1cc(Oc2ccc(NC(=O)Nc3cc(C(C)(C)C)nn3-c3ccc4ncccc4c3)c(F)c2)ccn1 [Rebastinib]
> 1 µM: [1] | [2] | [3]
